In BindingDB's records for doi:10.1111/cbdd.12778 (Shandong University, 2016):

Experiments:
[1] = target: T1, Histone deacetylase 8 (Homo sapiens, UniProt Q9BY41); assay: In vitro HDAC8 Assay
T1 sequence (Q9BY41 whole entry): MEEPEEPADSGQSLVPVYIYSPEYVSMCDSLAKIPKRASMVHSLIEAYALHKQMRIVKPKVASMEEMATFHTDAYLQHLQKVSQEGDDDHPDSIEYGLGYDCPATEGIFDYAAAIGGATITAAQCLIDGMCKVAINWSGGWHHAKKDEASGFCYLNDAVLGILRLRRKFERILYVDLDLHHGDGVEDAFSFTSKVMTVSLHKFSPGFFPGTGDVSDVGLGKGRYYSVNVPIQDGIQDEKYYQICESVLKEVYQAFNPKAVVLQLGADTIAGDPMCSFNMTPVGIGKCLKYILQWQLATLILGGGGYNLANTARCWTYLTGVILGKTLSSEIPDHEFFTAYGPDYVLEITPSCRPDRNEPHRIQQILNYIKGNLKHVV
Description: Briefly, the HDAC8 enzyme was diluted 20 times. Then, 10 μL of HDAC8 solution was mixed with compounds at various concentrations (50 μL). Then, 40 μL of the substrate [Boc-Lys-(acetyl)-AMC, 300 μm] was added, and the mixture was incubated at 37 °C for 30 min. Subsequently, the reaction was stopped by the addition of 100 μL of developer containing trypsin (10 μg/mL) and TSA (2 μm). Fluorescence intensity was measured by a microplate reader at excitation and emission wavelengths of 390 and 460 nm, respectively.

[2] = target: T2, Aminopeptidase N (Sus scrofa, UniProt P15145); assay: APN Inhibition Assay; settings: pH 7.2
T2 sequence (P15145 whole entry): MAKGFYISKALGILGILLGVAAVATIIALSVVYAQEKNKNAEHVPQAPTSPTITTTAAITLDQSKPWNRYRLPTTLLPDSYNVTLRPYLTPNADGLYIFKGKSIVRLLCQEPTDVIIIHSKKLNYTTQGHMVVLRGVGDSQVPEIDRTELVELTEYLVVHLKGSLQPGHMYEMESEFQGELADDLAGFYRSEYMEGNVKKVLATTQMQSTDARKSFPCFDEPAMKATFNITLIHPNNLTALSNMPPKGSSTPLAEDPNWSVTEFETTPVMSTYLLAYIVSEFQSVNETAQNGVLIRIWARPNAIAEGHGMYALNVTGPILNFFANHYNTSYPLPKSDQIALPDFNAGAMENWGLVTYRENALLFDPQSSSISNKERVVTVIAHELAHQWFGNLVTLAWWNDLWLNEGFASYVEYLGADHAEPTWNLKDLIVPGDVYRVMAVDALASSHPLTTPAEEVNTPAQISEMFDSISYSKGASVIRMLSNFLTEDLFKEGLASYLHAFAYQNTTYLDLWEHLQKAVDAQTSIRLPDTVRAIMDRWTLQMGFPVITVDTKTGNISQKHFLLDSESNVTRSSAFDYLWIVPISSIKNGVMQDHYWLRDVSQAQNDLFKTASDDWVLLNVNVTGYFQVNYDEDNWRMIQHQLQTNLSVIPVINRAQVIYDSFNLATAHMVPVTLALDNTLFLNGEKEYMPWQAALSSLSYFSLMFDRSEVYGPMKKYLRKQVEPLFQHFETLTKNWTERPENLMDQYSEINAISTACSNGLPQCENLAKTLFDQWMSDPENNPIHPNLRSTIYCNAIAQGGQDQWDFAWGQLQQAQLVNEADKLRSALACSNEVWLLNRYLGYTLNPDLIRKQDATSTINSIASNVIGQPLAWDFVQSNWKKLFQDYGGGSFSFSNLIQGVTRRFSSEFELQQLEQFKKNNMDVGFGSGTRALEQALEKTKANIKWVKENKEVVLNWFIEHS
Description: Briefly, the assay was performed in 96-well plates in […] PBS, pH 7.2 as the assay buffer, at 37 °C. The APN solution was mixed with compounds at various concentrations and incubated at 37 °C for 5 min. Subsequently, the substrate (l-leucine-p-nitroanilide) was added and the mixture was incubated for 30 min at 37°C.

Row | Compound | IC50 [1] [µM] | IC50 [2] [µM]
1 | CC1(C)CCC(C)(C)c2cc(NC(=O)c3ccc(C(=O)O)cc3)ccc21 [4-[(5,5,8,8-tetramethyl-5,6,7,8-tetrahydronaphthalen-2-yl)carbamoyl]benzoic acid] | > 100 | > 100
2 | O=C(CCCCCCC(=O)Nc1ccccc1)NO [Zolinza] |  | > 100
3 | CC1(C)CCC(C)(C)c2cc(NC(=O)c3ccc(C(=O)NO)cc3)ccc21 [N1-hydroxy-N4-(5,5,8,8-tetramethyl-5,6,7,8-tetrahydronaphthalen-2-yl)terephthalamide (7b)] | 4.3 | > 100
